Reference: patent US20030125363A1, “Riluzole and alpha-tocopherol combination” (priority 1998, published 2003)

System: patients suffering from ALS
[1] = after 12 months of treatment, Munsat functional states

Method: The study was carried out in 289 patients in total aged over 18 years, who have been suffering from ALS for less than 5 years and in whom the vital capacity/theoretical normal vital capacity ratio is greater than or equal to 60% (the vital capacity is a routine conventional measurement of the respiratory function also called lung function test).
The patients are divided into 2 groups:
group 1: 145 patients treated with 100 mg/day of riluzole by the oral route and 1000 mg/day of α-tocopherol by the oral route,
group 2: 144 patients treated with 100 mg/day of riluzole by the oral route and placebo.
The patients are monitored for a year. The results are measured on functional scales (Munsat's functional states (RIVIERE et al., Arch. Neurol., 55, 526 (1998)), a visual analog scale (VAS) for fatigability (LACOBLEZ et al., The Lancet, 347, 1425 (1996); BENSIMON et al., New England Journal of Medicine, 330, 585 (1994)) and plasma concentration of malondialdehyde, a biochemical marker for oxidative stress (FAVIER, Analysis of free radicals in biological systems, Birk Hauser, Basel/Switzerland, 1995 p. 100-117).
The Munsat functional state A relates to patients in an average or mild state:
average state: average deficiency in 3 regions (speech, arm and leg), functionally independent in speech, activities of the upper extremities in daily and ambulatory life,
mild state: average deficiency in 3 regions or mild to severe deficiency in one region while the other two regions are normal or slightly affected.
The Munsat functional state B relates to patients in the severe or final state:
severe state: need for assistance in 2 or 3 regions, dysarthric speech and/or patients requiring assistance to walk and/or requiring assistance for the activities of the upper extremities in daily life,
final state: nonfunctional use of at least 2 regions and mild or nonfunctional use of the third region.
The progression of the functional states A and B is determined at the time of inclusion (M0) and after 12 months of treatment (M12).

Nc1nc2ccc(OC(F)(F)F)cc2s1 [RILUZOLE AND PLACEBO, 2-amino-6-trifluoromethoxybenzothiazole]
Condition after treatment (M12): state A (Munsat functional state A (average or mild), after 12 months of treatment, riluzole 100 mg/day oral, α-tocopherol 1000 mg/day oral or placebo): 56 number of patients
Condition on inclusion (M0): state A (Munsat functional state A (average or mild), baseline at inclusion M0, oral treatment): 109 number of patients
Condition after treatment (M12): state B (Munsat functional state B (severe or final), after 12 months of treatment, riluzole 100 mg/day oral, α-tocopherol 1000 mg/day oral or placebo): 63 number of patients
Condition on inclusion (M0): state B (Munsat functional state B (severe or final), baseline at inclusion M0, oral treatment): 10 number of patients
patients who did not exhibit any change [1]: 66 patients
patients who did not exhibit any change (percent) [1]: 55.3%
patients who exhibited a worsening of the disease [1]: 53 patients
patients who exhibited a worsening of the disease (percent) [1]: 44.5%
